For orientation: IC50 means the concentration at which inhibition is half-maximal.

Molecules are shown by their SMILES. Where two headings read alike, the source gives them in different places. Marks after values point to notes of the source that are not given here.

The subject of series [1] is murine Lewis lung carcinoma (LLC). The experiment in a line: In vivo anticancer activity toward Lewis lung carcinoma. More on the design: species or system C57BL mice. The note with it: for Average tumor weight (mean ± SD, g) / Inhibition of tumor growth (%): daily i.p. from day 9, measured at day 15, 6: 5 mg kg^−1, 9: 3 mg kg^−1, cisplatin: 1.5 mg kg^−1; for Inhibition of tumor growth (%): referred to control animals. The protocol:
(§1) The mice were purchased from Charles River, Italy, housed in steel cages under controlled environmental conditions (constant temperature, humidity, and 12 h dark/light cycle), and alimented with commercial standard feed and tap water ad libitum. Animals were observed daily, and body weight and food intake recorded. The Lewis lung carcinoma (LLC) cell line was purchased from ECACC, UK. The LLC cell line was maintained in D-MEM (Euroclone) supplemented with 10% heat-inactivated FBS (Euroclone), 10 mM L-glutamine, 100 U mL^−1 penicillin, and 100 μg mL^−1 streptomycin in a 5% CO2 air incubator at 37° C. […] At day 15, animals were sacrificed, the legs were amputated at the proximal end of the femur, and the inhibition of tumor growth was determined according to the difference in weight of the tumor-bearing leg and the healthy leg of the animals expressed as % referred to the control animals. Body weight was measured every two days and was taken as a parameter for systemic toxicity. All the values are the means±S.D. of not less than three measurements. Multiple comparisons were made by Tukey-Kramer test (** p<0.01; * p or °p<0.05).
(§2) For the assessment of the adverse side effects, changes in body weights of tumor-bearing mice were monitored daily (FIG. 1).
Starting from day 9 after tumor implantation, tested compounds were daily administered i.p. At day 15, mice were sacrified and tumor growth was detected as described above.

Series [2] has as its system human ovarian cancer cells 2008. The series is described as follows: MTT cytotoxicity assay, 72 h, 2008.
Text: (§3) Human breast (MCF-7), lung (H157), pancreatic (PSN-1) and colon (HCT-15 and LoVo) carcinoma cell lines were obtained from the American Type Culture Collection (ATCC, Rockville, MD). A431 are human cervical carcinoma cells kindly provided by Prof. F. Zunino (Molecular Pharmacology Unit, Experimental Oncology and Molecular Medicine, Istituto Nazionale dei Tumori, Milan, Italy). […] G. Marverti (Dept. of Biomedical Science, University of Modena, Italy).
(§4) Briefly, depending upon the growth characteristics of the cell line, 3-8×10^3 cells well^−1, were seeded in 96-well microplates in growth medium (100 μL) and then incubated at 37° C. in a 5% carbon dioxide atmosphere. After 24 h, the medium was removed and replaced with a fresh one containing the compound to be studied, at the appropriate concentration, dissolved in 0.9% sodium chloride solution just before use. Triplicate cultures were established for each treatment. After 72 h, each well was treated with 10 μL of a 5 mg mL^−1 MTT saline solution and, after 5 h of incubation, 100 μL of a sodium dodecylsulfate (SDS) solution in 0.01 M HCl were added. After an overnight incubation, the inhibition of cell growth induced by the tested complexes was determined by measuring the absorbance of each well at 570 nm using a Bio-Rad 680 microplate reader. Mean absorbance for each drug dose was expressed as percentage of the control and plotted vs. drug concentration. Dose-response curves were fitted and IC50 values were calculated with four parameter logistic model (4PL).
(§5) The cytotoxicity was evaluated by means of the MTT test for 72 h treatment with increasing concentrations of the tested compounds.
(§6) Cytotoxic activity was examined against a panel of human tumor cell lines. […] The growth inhibitory effect was evaluated by means of MTT test. Cells (5-8×10^3 mL^−1, depending on the growth characteristics of the cell line) were treated for 72 h with increasing concentrations of tested compounds. […] SD=standard deviation, -=not detected.
as §5, §6
On the technique in general: Tetrazolium assays rely on reduction of a dye to a coloured formazan, in cell work by metabolically active cells.

The procedure of series [3]:
as §1, §2

The test system of series [4] is human pancreatic carcinoma cells PSN-1. The experiment in a line: MTT cytotoxicity assay, 72 h, PSN-1. Type of series: cell-based. The note with it: MTT test, mean ± SD.
Text: as §3, §4, §5, §6

Series [5] deals with human colon carcinoma cells HCT-15. The experiment in a line: MTT cytotoxicity assay, 72 h, HCT-15. Type of series: cell-based. The note with it: MTT test, mean ± SD.
Text: as §3, §4, §5, §6

The subject of series [6] is human breast carcinoma cells MCF-7. The series is described as follows: MTT cytotoxicity assay, 72 h, MCF-7. Type of series: cell-based. The note with it: MTT test, mean ± SD.
Text: as §3, §4, §5, §6

Series [7] relates to human lung carcinoma cells H157. The experiment in a line: MTT cytotoxicity assay, 72 h, H157. Type of series: cell-based. The note with it: MTT test, mean ± SD.
Text: as §3, §4, §5, §6

Series [8] deals with human cervical carcinoma cells A431. The series is described as follows: MTT cytotoxicity assay, 72 h, A431. Type of series: cell-based. The note with it: MTT test, mean ± SD.
Text: as §3, §4, §5, §6

For series [9] the following is noted: cited from earlier work.
For series [10] the following is noted: compared with CDDP; cited from earlier work.
The next series deals with proteasome. The note with it: cited from earlier work.
Series [11] concerns human cancer cell lines endowed with acquired or natural resistance to CDDP or to OXP. The note with it: fold lower IC50 in resistant cell lines; cited from earlier work.
In series [12] the test system is LoVo colon cancer spheroids. The note with it: cited from earlier work.
The next series relates to Lewis Lung Carcinoma. The note with it: different schedules, compared with CDDP; cited from earlier work.
Series [13] relates to human non transformed cells. The note with it: average IC50 normal cells / average IC50 malignant cells; cited from earlier work.
Series [14] deals with human colorectal cancer xenografts. The note with it: oxaliplatin-sensitive and resistant models; cited from earlier work.
Series [15] relates to HCT-15 colon cancer spheroids. The note with it: HCT-15 spheroids; cited from earlier work.
For series [16] the following is noted: animals of the Lewis Lung Carcinoma model; cited from earlier work.
Series [17] relates to panel of human cancer cells. The note with it: 2D monolayer, cited from earlier work.
Series [18] has as its system human colon cancer cells LoVo. The experiment in a line: MTT cytotoxicity assay, 72 h, LoVo. Type of series: cell-based. The note with it: MTT test, mean ± SD. The protocol: Triplicate cultures were established for each treatment.
. A LoVo cell line retaining a multidrug resistance phenotype was also considered (LoVo MDR). Cross-resistance profiles were evaluated by means of the resistance factor (RF), which is defined as the ratio between the IC50 value for the resistant cells and that arising from the sensitive cells (Table 3).
Cytotoxicity was assessed by MTT test. […]. Resistant Factor (in brackets) is defined as IC50 resistant/parent line.

A further series relates to LoVo MDR cells. The series is described as follows: MTT cytotoxicity assay, 72 h, LoVo MDR (multidrug resistant). Type of series: cell-based, human. The note with it: MTT test, mean ± SD.
Text: as §3, §4
(§7) A LoVo cell line retaining a multidrug resistance phenotype was also considered (LoVo MDR). Cross-resistance profiles were evaluated by means of the resistance factor (RF), which is defined as the ratio between the IC50 value for the resistant cells and that arising from the sensitive cells (Table 3).
Cells (5×10^3 mL-1) were treated for 72 h with increasing concentrations of tested compounds. Cytotoxicity was assessed by MTT test. […] Resistant Factor (in brackets) is defined as IC50 resistant/parent line. […]

Series [19] concerns panel of human tumor cell lines. The series is described as follows: Average cytotoxic activity over the cell panel (MTT) compared with reference drugs. The note with it: on average over the cell panel. The protocol: as §4, §5
Cytotoxic activity was examined against a panel of human tumor cell lines. […] The growth inhibitory effect was evaluated by means of MTT test. […] SD=standard deviation, -=not detected.

The next series has as its system LoVo-OXP cells. The series is described as follows: MTT cytotoxicity assay, 72 h, LoVo-OXP (oxaliplatin resistant). Type of series: cell-based, human. The note with it: MTT test, mean ± SD.
Text: as §3, §4, §7
Cells (5×10^3 mL-1) were treated for 72 h with increasing concentrations of tested compounds. Cytotoxicity was assessed by MTT test. […] Resistant Factor (in brackets) is defined as IC50 resistant/parent line.

[20] abbreviates: read-out: IC50 2008, MTT test, mean ± SD, Table 1.

As for `N.N.[Cl][Pt][Cl]` [cisplatin, cis-diamminedichloroplatinum(II), reference compound], in [1], the “Average tumor weight (mean ± SD, g)” value was 0.119 ± 0.10** g. In [1], the “Inhibition of tumor growth (%)” value is recorded as 79.8%. Moreover, the 50% inhibitory concentration (IC50) in [2] (setting [20]) is 2.2 ± 0.5 µM; in [2] (read-out: IC50 2008, MTT test, mean ± SD, Table 2), 2.2 ± 0.5 µM; in series [4], 18.3 ± 3.1 µM; in series [5], 15.3 ± 2.6 µM; in series [6] it was 7.6 ± 0.2 µM; in [7] it was 2.1 ± 0.9 µM. This molecule also registered an IC50 in series [8] of 2.1 ± 0.8 µM. For the same molecule, the body weight loss in series [3] (mouse, in vivo, ip) is listed as greater than 20%.
With `F[P-](F)(F)(F)(F)F.OCP(CO)CO.OCP(CO)CO.OCP(CO)CO.OCP(CO)CO.[Cu+]` [[Cu(thp)4][PF6]], the “solubility and stability in water solution” value in series [9] is “highly soluble and stable in water solution”. The “median lethal doses (LD50) and maximum tolerated doses (MTD)” value in series [10] is recorded as “significantly higher that those recorded with CDDP”. The “effect on proteolytic activities of proteasome” value with proteasome is “inhibit the proteolytic activities of proteasome”. Besides, in series [11], the “IC50 relative to the reference metallodrugs” value is given as “up to 35 fold”. For the same molecule, the “IC50 relative to OXP” value in series [12] and in series [15] was “very similar to those of OXP” in each case. For the same molecule, in the series on Lewis Lung Carcinoma, the “inhibition of proliferation of tumor cell population in vivo” value is “superior to that induced by the gold-standard drug CDDP”. In addition, the “selectively index relative to CDDP” value in series [13] is given as “about 30 times”. For the same molecule, in series [13], the “selectively index relative to OXP” value is 3 times. Moreover, the “efficacy of chemotherapy in xenografts” value in series [14] was “extremely effective in both oxaliplatin-sensitive and resistant models”. Also, the “clinical signs of toxicity” value in series [16] is “no clinical signs of toxicity and no anorexia”. Also, the “cytotoxicity relative to CDDP” value in [17] (fold more cytotoxic than CDDP) is reported as “up to 50 fold”. Besides, the “cytotoxicity relative to OXP” value in [17] (fold more cytotoxic than OXP) is on record as no more than 30 fold.
On to `F[B-](F)(F)F.O=Cc1ccccc1P(c1ccccc1)c1ccccc1.O=Cc1ccccc1P(c1ccccc1)c1ccccc1.[Cu+]` [Compound 9, Bis[2-(diphenylphosphanyl)benzaldehyde]copper(I) tetrafluoroborate], for which, in series [1] (3 mg kg^−1 daily i.p., day 15), the “reduction of the tumor mass” value stood at 83%. The “Average tumor weight (mean ± SD, g)” value in [1] is reported as 0.098 ± 0.06** g. The “Inhibition of tumor growth (%)” value in [1] came to 83.4%. The IC50 stood at 0.6 ± 0.2 µM in [18]; 0.6 ± 0.1 µM in series [2] (setting [20]); 0.8 ± 0.5 µM in the series with LoVo MDR cells; 1.1 ± 0.5 µM in series [4]; 1.1 ± 0.6 µM with LoVo-OXP cells; 0.8 ± 0.2 µM in [5]. The IC50 in series [6] was determined as 1.3 ± 0.3 µM; in series [7], 1.5 ± 0.2 µM; in series [8], 4.7 ± 0.6 µM. For the same molecule, the “average cytotoxic activity relative to cisplatin” value in [19] (times more effective than cisplatin) worked out at 4.8 times. Besides, the “average cytotoxic activity relative to oxaliplatin” value in series [19] (times more effective than oxaliplatin) is 3.8 times. In addition, the “tolerability compared with cisplatin” value in [3] (doses 5 and 3 mg kg^−1 represent ⅓ of the MTD) is on record as “better tolerated than cisplatin”.

Source of the values: patent publication US20240239814A1, “Complexes Of CU(I) As Antitumor Agents” (priority 2021, published 2024).
